Experimental data as given in patent US8183239B2, “Substituted piperazines and piperidines as modulators of the neuropeptide Y2 receptor” (Janssen Pharmaceutica NV, priority 2005, dated 2012).
Read-outs that look alike come from different tables or passages of the source.

Target: T1, Y2 receptors (Homo sapiens, UniProt P49146)
T1 construct: endogenous in cells; host or cells: KAN-Ts cells (membranes)
T1 sequence (P49146 1-381): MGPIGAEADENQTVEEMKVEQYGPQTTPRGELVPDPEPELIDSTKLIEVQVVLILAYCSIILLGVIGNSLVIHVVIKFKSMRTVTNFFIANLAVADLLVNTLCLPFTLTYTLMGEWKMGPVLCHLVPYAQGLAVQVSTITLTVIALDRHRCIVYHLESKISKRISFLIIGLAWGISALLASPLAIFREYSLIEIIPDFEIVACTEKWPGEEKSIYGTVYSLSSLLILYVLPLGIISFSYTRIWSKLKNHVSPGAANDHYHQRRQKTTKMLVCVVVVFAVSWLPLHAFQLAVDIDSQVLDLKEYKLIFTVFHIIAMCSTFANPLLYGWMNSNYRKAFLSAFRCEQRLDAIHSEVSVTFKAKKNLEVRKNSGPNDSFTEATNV
Test: Radioligand binding assay ([125I]PYY, KAN-Ts cell membranes)
Conditions: Table 1, [125I]PYY 80 pM, average of results
Procedure: Radioligand Binding Assay
KAN-Ts endogenously expressing Y2 receptors were used for the radioligand binding assay. Cells were grown to confluence on 150 cm^2 tissue culture plates, washed with phosphate-buffered saline (PBS), and scraped into 50 mL tubes. After centrifugation, the supernatant was aspirated, and the pellets frozen and stored at −80° C. Thawed pellets were homogenized with a polytron tissue grinder for 15 sec in 20 mM Tris-HCl, 5 mM EDTA. The homogenate was centrifuged at 800×g for 5 min and the collected supernatant was recentrifuged at 25000×g for 25 min. The resulting pellet was resuspended in binding buffer (20 mM HEPES, 120 mM NaCl, 0.22 mM KH2PO4, 1.3 mM CaCl2, 0.8 mM MgSO4). Membranes were incubated with [^125I]PYY (80 pM) in the presence or absence of test compound for 1 h at rt. The reaction was stopped by filtration through GF/C filter plates pre-soaked in 0.3% polyethylenimine and subsequently washed with Tris 50 mM, 5 mM EDTA buffer. Plates were dried for 1 h in a 55° C. oven, scintillation fluid was added and the radioactivity was counted in a Packard TopCount. Specific binding to the NPY receptor subtypes was determined by radioactivity that was bound in the presence of […]. Each binding experiment was repeated three to eight times, each in duplicate. IC50 values (i.e. concentration of unlabelled peptide or antagonist required to compete for 50% of specific binding to the radioligand) were calculated using the GraphPad Prism software (GraphPad Software Inc., San Diego Calif.) with a fit to a sigmoidal dose response curve. Data for compounds tested are presented in Tables 1 and 2 as an average of results obtained.

Row | SMILES | IC50 (read-out: IC50) [nM] | IC50 (IC50 (nM)) [nM]
1 | CCNC(=O)C(c1ccccc1)N1CCN(c2ccc(NC(=O)Cc3c(C)noc3C)cc2F)CC1 (centres unmarked) [Example 24, 2-(4-{4-[2-(3,5-Dimethyl-isoxazol-4-yl)-acetylamino]-2-fluoro-phenyl}-piperazin-1-yl)-N-ethyl-2-phenyl-acetamide] | 176 | –
2 | CCNC(=O)C(c1ccccc1)N1CCN(c2ccc(NC(=O)Nc3cc(C)ccc3C)cc2F)CC1 (centres unmarked) [Example 25, 2-(4-{4-[3-(2,5-Dimethyl-phenyl)-ureido]-2-fluoro-phenyl}-piperazin-1-yl)-N-ethyl-2-phenyl-acetamide] | 260 | –
3 | CCNC(=O)C(c1ccccc1)N1CCN(c2ccc(NC(=O)NCc3ccc(F)cc3)cc2F)CC1 (centres unmarked) [Example 26, N-Ethyl-2-(4-{2-fluoro-4-[3-(4-fluoro-benzyl)-ureido]-phenyl}-piperazin-1-yl)-2-phenyl-acetamide] | 2000 | –
4 | CCNC(=O)C(c1ccccc1)N1CCN(c2ccc(NC(=O)N[C@@H](C)c3ccc(F)cc3)cc2F)CC1 (stereo partly drawn) [Example 28, N-Ethyl-2-[4-(2-fluoro-4-{3-[(S)-1-(4-fluoro-phenyl)-ethyl]-ureido}-phenyl)-piperazin-1-yl]-2-phenyl-acetamide] | 2900 | –
5 | CCN(CC)C(=O)C(c1ccccc1)N1CCN(c2ccc(NC(=O)[C@H]3CCOC3)cc2F)CC1 (stereo partly drawn) [Example 29, (S)-Tetrahydro-furan-3-carboxylic acid {4-[4-(diethylcarbamoyl-phenyl-methyl)-piperazin-1-yl]-3-fluoro-phenyl}-amide] | 65 | –
6 | CCN(CC)C(=O)C(c1ccccc1)N1CCN(c2ccc(N(CC)C(=O)N(CC)c3c(C)noc3C)cc2F)CC1 (centres unmarked) [Example 30, 2-(4-{4-[3-(3,5-Dimethyl-isoxazol-4-yl)-1,3-diethyl-ureido]-2-fluoro-phenyl}-piperazin-1-yl)-N,N-diethyl-2-phenyl-acetamide] | 570 | –
7 | CCN(CC)C(=O)C(c1ccccc1)N1CCN(c2ccc(C(=O)NCc3c(C)noc3C)cc2F)CC1 (centres unmarked) [Example 31, 4-[4-(Diethylcarbamoyl-phenyl-methyl)-piperazin-1-yl]-N-(3,5-dimethyl-isoxazol-4-ylmethyl)-3-fluoro-benzamide] | 24 | –
8 | CCC(CC)C(=O)N(c1ccccc1)C1CCN(c2ccc(NC(=O)Nc3c(C)noc3C)cc2F)CC1 [Example 32, N-(1-{4-[3-(3,5-Dimethyl-isoxazol-4-yl)-ureido]-2-fluoro-phenyl}-piperidin-4-yl)-2-ethyl-N-phenyl-butyramide] | – | 180
9 | CCC(CC)C(=O)Nc1ccc(N2CCC(N(C(=O)C(CC)CC)c3ccccc3)CC2)c(F)c1 [Example 33, 2-Ethyl-N-{1-[4-(2-ethyl-butyrylamino)-2-fluoro-phenyl]-piperidin-4-yl}-N-phenyl-butyramide] | – | 180
10 | CCC(CC)C(=O)Nc1ccc(N2CCN(C(C(=O)OC)c3cccc(F)c3)CC2)c(F)c1 (centres unmarked) [Example 34, {4-[4-(2-Ethyl-butyrylamino)-2-fluoro-phenyl]-piperazin-1-yl}-(3-fluoro-phenyl)-acetic acid methyl ester] | – | 40
11 | CCC(CC)C(=O)Nc1ccc(N2CCN(C(C(=O)N(CC)CC)c3cccc(F)c3)CC2)c(F)c1 (centres unmarked) [Example 35, N-(4-{4-[Diethylcarbamoyl-(3-fluoro-phenyl)-methyl]-piperazin-1-yl}-3-fluoro-phenyl)-2-ethyl-butyramide] | 33 | –
12 | CCC(CC)C(=O)Nc1ccc(N2CCN(C(C(=O)OC)c3ccc(C#N)cc3)CC2)c(F)c1 (centres unmarked) [Example 36, (4-Cyano-phenyl)-{4-[4-(2-ethyl-butyrylamino)-2-fluoro-phenyl]-piperazin-1-yl}-acetic acid methyl ester] | 210 | –
13 | CCC(CC)C(=O)Nc1ccc(N2CCN(C(C(=O)OC)c3cccc(Cl)c3)CC2)c(F)c1 (centres unmarked) [Example 37, (3-Chloro-phenyl)-{4-[4-(2-ethyl-butyrylamino)-2-fluoro-phenyl]-piperazin-1-yl}-acetic acid methyl ester] | 56 | –
14 | CCC(CC)C(=O)Nc1ccc(N2CCN(C(C(=O)OC)c3cccc(F)c3F)CC2)c(F)c1 (centres unmarked) [Example 38, (2,3-Difluoro-phenyl)-{4-[4-(2-ethyl-butyrylamino)-2-fluoro-phenyl]-piperazin-1-yl}-acetic acid methyl ester] | 440 | –
15 | COC(=O)C(c1ccccc1)N1CCN(c2ccc(NC(=O)c3ccccc3C)cc2Cl)CC1 (centres unmarked) [Example 39, {4-[2-Chloro-4-(2-methyl-benzoylamino)-phenyl]-piperazin-1-yl}-phenyl-acetic acid methyl ester] | 800 | –
16 | CCC(CC)C(=O)Nc1cc(F)c(N2CCN(C(C(=O)OC)c3ccccc3)CC2)c(F)c1 (centres unmarked) [Example 40, {4-[4-(2-Ethyl-butyrylamino)-2,6-difluoro-phenyl]-piperazin-1-yl}-phenyl-acetic acid methyl ester] | 110 | –
17 | CCC(CC)C(=O)Nc1cc(Cl)c(N2CCN(C(C(=O)OC)c3ccccc3)CC2)c(Cl)c1 (centres unmarked) [Example 41, {4-[2,6-Dichloro-4-(2-ethyl-butyrylamino)-phenyl]-piperazin-1-yl}-phenyl-acetic acid methyl ester] | 77 | –
18 | CCNC(=O)C(c1ccccc1)N1CCN(c2ccc(NC(=O)C(CC)CC)c(F)c2)CC1 (centres unmarked) [Example 42, 2-Ethyl-N-{4-[4-(ethylcarbamoyl-phenyl-methyl)-piperazin-1-yl]-2-fluoro-phenyl}-butyramide] | 4830 | –
19 | CCNC(=O)C(c1ccccc1)C1CCN(c2ccc(NC(=O)C(CC)CC)cc2C#N)CC1 (centres unmarked) [Example 43, N-{3-Cyano-4-[4-(ethylcarbamoyl-phenyl-methyl)-piperidin-1-yl]-phenyl}-2-ethyl-butyramide] | 14 | –
20 | CCC(CC)C(=O)Nc1ccc(N2CCN(C(C(=O)OC)c3ccccc3)CC2)c(F)c1 (centres unmarked) [Example 44, {4-[4-(2-Ethyl-butyrylamino)-2-fluoro-phenyl]-piperazin-1-yl}-phenyl-acetic acid methyl ester] | 131 | –
21 | COC(=O)C(c1ccccc1)N1CCN(c2ccc(NC(=O)C3Cc4ccccc43)cc2)CC1 (centres unmarked) [Example 45, (4-{4-[(Bicyclo[4.2.0]octa-1 (6),2,4-triene-7-carbonyl)-amino]-phenyl}-piperazin-1-yl)-phenyl-acetic acid methyl ester] | 4000 | –
22 | COC(=O)C(c1ccccc1)N1CCN(c2ccc(NC(=O)c3ccccc3I)cc2)CC1 (centres unmarked) [Example 46, {4-[4-(2-Iodo-benzoylamino)-phenyl]-piperazin-1-yl}-phenyl-acetic acid methyl ester] | 6000 | –
23 | COC(=O)C(c1ccccc1)N1CCN(c2ccc(NC(=O)c3ccccc3)cc2)CC1 (centres unmarked) [Example 47, [4-(4-Benzoylamino-phenyl)-piperazin-1-yl]-phenyl-acetic acid methyl ester] | 10000 | –
24 | COC(=O)C(c1ccccc1)N1CCN(c2ccc(NC(=O)c3ccccc3C3CCCCC3)cc2)CC1 (centres unmarked) [Example 49, {4-[4-(2-Cyclohexyl-benzoylamino)-phenyl]-piperazin-1-yl}-phenyl-acetic acid methyl ester] | 1300 | –
25 | COC(=O)C(c1ccccc1)N1CCN(c2ccc(NC(=O)c3ccccc3C)cc2)CC1 (centres unmarked) [Example 50, {4-[4-(2-Methyl-benzoylamino)-phenyl]-piperazin-1-yl}-phenyl-acetic acid methyl ester] | 1800 | –
26 | CCc1ccccc1C(=O)Nc1ccc(N2CCN(C(C(=O)OC)c3ccccc3)CC2)cc1 (centres unmarked) [Example 51, {4-[4-(2-Ethyl-benzoylamino)-phenyl]-piperazin-1-yl}-phenyl-acetic acid methyl ester] | 1850 | –
